Active and inactive are the calls of the source.
Experiments:
[1] = M. tuberculosis H37Rv growth inhibitors, H37Rv strain (AID 1626); format: functional
[2] = target: T1, Sentrin-specific protease 6 (Homo sapiens, UniProt Q9GZR1); format: functional;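 further: Luminescence-based dose-response confirmatory assay of SENP6 inhibition, following up an ultra-high-throughput screen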
T1 sequence (Q9GZR1 whole entry): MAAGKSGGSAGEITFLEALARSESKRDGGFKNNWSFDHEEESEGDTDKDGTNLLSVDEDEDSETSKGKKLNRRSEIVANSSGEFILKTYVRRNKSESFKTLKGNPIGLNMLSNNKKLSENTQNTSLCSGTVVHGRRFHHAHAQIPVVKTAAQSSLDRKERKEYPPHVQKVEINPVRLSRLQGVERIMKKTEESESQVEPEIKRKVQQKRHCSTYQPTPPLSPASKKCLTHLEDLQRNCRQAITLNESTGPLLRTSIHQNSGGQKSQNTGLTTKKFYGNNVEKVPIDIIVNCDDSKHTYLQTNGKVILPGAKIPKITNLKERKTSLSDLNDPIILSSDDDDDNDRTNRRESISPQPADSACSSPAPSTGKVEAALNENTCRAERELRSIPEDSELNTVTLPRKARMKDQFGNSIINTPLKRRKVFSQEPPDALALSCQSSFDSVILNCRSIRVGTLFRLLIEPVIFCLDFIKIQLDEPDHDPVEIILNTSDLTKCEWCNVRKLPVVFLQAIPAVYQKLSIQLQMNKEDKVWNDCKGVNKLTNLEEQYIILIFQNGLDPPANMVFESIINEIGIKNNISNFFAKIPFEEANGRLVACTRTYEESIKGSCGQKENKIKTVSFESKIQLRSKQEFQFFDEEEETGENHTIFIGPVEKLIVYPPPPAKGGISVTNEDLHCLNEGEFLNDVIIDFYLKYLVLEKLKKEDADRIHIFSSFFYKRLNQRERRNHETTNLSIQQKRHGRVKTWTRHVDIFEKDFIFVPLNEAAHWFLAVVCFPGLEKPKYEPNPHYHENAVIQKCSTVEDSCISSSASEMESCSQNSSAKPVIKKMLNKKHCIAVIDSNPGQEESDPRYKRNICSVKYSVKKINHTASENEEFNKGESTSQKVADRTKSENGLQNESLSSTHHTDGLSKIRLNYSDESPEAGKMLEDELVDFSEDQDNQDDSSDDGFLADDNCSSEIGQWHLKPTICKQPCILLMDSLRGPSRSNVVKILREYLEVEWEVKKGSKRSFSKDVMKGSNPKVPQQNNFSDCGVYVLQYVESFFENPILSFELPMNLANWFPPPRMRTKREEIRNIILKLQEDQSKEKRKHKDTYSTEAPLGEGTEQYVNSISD

[3] = Luminescence-based counterscreen assay for KLF5 inhibitors: dose response cell-based high throughput screening assay to identify cytotoxic compounds using the IEC-6 intestinal epithelial cell line. [Related pubchem assays: 1700 (Primary screen.), 1834 (Confirmation screen.), 1858 (Summary AID.), 1905 (Counterscreen.)]; format: functional
[4] = target: T2, Sentrin-specific protease 8 (Homo sapiens, UniProt Q96LD8); format: functional;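 further: luminescence read-out of SENP8 inhibition, dose-response confirmation following an ultra-high-throughput screen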
T2 sequence (Q96LD8 whole entry): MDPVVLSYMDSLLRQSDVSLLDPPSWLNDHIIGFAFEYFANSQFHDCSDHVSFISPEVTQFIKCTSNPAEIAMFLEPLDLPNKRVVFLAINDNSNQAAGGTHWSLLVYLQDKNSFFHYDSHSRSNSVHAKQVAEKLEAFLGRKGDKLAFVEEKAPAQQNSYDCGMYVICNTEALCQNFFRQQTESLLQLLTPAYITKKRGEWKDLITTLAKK

CAAX prenyl protease 2 = target: T3, CAAX prenyl protease 2 (Saccharomyces cerevisiae S288c, UniProt Q03530); format: biochemical
T3 sequence (Q03530 whole entry): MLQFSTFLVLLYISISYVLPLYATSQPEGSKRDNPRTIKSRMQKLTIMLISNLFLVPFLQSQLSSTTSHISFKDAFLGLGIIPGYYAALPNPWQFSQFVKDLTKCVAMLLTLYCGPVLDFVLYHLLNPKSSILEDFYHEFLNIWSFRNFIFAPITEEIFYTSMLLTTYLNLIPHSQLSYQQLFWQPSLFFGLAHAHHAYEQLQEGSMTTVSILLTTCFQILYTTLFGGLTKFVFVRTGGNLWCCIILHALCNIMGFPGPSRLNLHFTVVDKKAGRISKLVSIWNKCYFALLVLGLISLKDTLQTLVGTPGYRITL

[5] = blockade of melanocortin 4 receptor signaling – cell-based, plate reader, cherry pick, counter-screen for LGR2 antagonist project, dose response (AID 743444); format: functional;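 further: transfected HEK 293 cells stimulated with alpha-MSH peptide; potency of inhibitors of the alpha-MSH evoked signal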
Trypsin = Trypsin (Sus scrofa, UniProt P00761); experiment: trypsin protease activity blockade – biochemical, quenched peptide fluorescence, cherry-pick, selectivity assay for Rce1 protease inhibitor project, dose response (AID 488789)
[6] = blockers of bursicon-stimulated LGR2 cAMP reporter – cell-based, HEK293, CRE-luciferase reporter, cherry pick, set 2, dose response (AID 743343); format: functional;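 further: transfected cells were stimulated with diluted bursicon conditioned medium after compound addition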
Caspase-3 = target: T4, Caspase-3 (Homo sapiens, UniProt P42574); format: functional;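 further: Dose-response selectivity test against caspase-3 for candidate inhibitors of sentrin-specific proteases (SENPs)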
T4 sequence (P42574 whole entry): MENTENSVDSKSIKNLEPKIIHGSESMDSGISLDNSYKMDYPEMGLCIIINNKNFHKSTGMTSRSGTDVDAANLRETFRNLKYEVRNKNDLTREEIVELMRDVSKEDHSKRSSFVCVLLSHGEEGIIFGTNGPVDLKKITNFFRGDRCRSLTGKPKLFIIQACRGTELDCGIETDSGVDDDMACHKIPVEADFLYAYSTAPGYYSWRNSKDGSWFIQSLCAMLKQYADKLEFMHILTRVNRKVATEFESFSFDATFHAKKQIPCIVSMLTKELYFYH

[7] = target: T5, Sentrin-specific protease 7 (Homo sapiens, UniProt Q9BQF6); format: functional;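 further: Luminescence-based dose-response confirmation of ultra-high-throughput screening hits, measuring inhibition of SENP7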
T5 sequence (Q9BQF6 whole entry): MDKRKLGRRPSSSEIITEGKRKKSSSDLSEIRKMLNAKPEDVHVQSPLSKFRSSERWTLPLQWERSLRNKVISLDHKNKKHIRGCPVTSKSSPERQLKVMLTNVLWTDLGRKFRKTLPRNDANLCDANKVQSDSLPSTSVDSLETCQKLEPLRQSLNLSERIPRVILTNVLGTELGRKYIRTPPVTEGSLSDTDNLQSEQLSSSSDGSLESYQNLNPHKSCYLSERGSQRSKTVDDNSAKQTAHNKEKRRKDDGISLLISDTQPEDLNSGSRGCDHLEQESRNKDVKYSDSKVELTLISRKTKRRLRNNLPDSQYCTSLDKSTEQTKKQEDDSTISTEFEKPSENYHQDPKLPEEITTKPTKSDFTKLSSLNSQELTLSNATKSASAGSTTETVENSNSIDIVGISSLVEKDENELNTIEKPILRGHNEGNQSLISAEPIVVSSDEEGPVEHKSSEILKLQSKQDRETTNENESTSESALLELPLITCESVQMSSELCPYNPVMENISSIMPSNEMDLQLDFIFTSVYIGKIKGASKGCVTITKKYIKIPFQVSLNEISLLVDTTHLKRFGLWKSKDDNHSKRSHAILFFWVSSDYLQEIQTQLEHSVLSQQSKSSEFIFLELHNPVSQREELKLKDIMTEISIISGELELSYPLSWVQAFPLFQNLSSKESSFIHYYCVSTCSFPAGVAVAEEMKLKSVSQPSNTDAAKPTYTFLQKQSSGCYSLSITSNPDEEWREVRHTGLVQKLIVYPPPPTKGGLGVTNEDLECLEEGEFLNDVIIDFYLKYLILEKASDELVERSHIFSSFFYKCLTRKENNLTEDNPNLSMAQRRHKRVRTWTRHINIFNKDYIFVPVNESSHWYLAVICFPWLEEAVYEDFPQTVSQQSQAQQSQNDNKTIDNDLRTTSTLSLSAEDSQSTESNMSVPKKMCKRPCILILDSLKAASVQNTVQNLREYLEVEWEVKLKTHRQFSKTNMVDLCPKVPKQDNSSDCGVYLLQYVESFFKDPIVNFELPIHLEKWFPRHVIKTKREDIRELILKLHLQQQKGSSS

[8] = target: Neuropeptide Y receptor type 1 (Homo sapiens, UniProt P25929); format: functional;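 further: HEK293 cells with a CNG channel challenged with NPY then isoproterenol; potency as antagonist that reverses NPY suppression of cAMP signal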
[9] = target: Neuropeptide Y receptor type 2 (Homo sapiens, UniProt P49146); format: functional, cell-based;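 further: HEK293 cells expressing the receptor and a CNG channel; stimulus was NPY near EC95 followed by isoproterenol to raise cAMP; antagonist potency measured as restoring cAMP signal that NPY suppresses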
HeLa = experiment: Cytotoxicity counterscreen assay for transcriptional activators of heat shock protein 70 (Hsp70). [Related pubchem assays: 1203, 1252 ]; format: functional; conditions: Homo sapiens;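 further: cells exposed to compound for 16 hours before readout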
cells = format: functional
[10] = Vero E6 cell cytotoxicity, dose response, cytotoxicity control for non-replicating M. tuberculosis project, secondary assay (AID 492998); format: functional, VeroE6; conditions: Vero C1008
[11] = mitochondrial function rescue without frataxin homolog – Friedreich's ataxia, plus single-dose screen, dose response (AID 1465); format: functional;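 further: yeast depleted of Yfh1p frataxin homolog grown on glycerol needing respiration; WST-1 tetrazolium dye reduction as measure of cellular dehydrogenase metabolic activity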

Trypsin, sequence (P00761 whole entry): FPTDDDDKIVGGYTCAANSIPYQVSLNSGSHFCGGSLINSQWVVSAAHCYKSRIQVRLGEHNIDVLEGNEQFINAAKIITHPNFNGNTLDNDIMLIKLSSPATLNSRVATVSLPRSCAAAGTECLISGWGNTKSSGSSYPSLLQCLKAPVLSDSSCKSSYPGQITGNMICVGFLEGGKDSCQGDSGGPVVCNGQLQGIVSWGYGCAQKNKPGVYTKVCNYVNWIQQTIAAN
Neuropeptide Y receptor type 2, sequence (P49146 whole entry): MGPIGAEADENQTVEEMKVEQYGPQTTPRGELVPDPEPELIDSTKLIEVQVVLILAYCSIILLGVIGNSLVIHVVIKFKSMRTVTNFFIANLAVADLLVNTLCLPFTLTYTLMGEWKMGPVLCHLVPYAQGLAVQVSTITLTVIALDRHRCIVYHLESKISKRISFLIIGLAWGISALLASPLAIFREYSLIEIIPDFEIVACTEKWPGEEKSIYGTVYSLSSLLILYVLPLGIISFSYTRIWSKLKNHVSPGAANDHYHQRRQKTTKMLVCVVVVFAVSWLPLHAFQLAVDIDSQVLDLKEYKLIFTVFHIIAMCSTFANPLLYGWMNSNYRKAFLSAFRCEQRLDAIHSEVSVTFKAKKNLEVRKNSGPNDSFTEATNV
Neuropeptide Y receptor type 1, sequence (P25929 whole entry): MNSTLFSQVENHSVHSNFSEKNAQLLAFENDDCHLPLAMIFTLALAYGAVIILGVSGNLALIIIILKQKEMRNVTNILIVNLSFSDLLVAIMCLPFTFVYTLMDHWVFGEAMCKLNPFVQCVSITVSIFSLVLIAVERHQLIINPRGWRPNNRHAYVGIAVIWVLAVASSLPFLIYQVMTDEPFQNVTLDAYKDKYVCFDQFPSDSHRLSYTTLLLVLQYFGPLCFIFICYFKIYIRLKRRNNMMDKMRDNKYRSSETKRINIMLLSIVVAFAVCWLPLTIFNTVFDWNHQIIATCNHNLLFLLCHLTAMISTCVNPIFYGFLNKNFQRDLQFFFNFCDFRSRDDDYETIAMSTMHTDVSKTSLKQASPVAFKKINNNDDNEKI

With `C=CCn1c(COc2ccc3c(c2)CCCC3)nnc1SCC(=O)Nc1cccc(SC)c1` the IC50 [1] was > 100 µM (active).

With `Nc1c(C(=O)Nc2cccc(C(=O)O)c2)sc2nc3c(cc12)CCCC3` the IC50 [2] was 15.1 µM (active), the IC50 [3] was > 39.8 µM (not active) and the IC50 [4] was 31 µM (active). For the same compound, the AC50 (CAAX prenyl protease 2) was 47.8 µM (active), the AC50 [5] was 3.29 µM (active) and the AC50 (Trypsin) was 10.5 µM (active). For the same compound, the AC50 [6] was 3.06 µM (active), the IC50 (Caspase-3) was 71.6 µM (active) and the IC50 [7] was 7.47 µM (active).

With `Cc1ccc(C)c(NS(=O)(=O)c2cc(C(=O)Nc3ccccc3-c3ccccc3)ccc2C)c1` the IC50 [8] was > 35 µM (not active) and the IC50 [9] was 0.298 µM (active).

In the case of `O=[N+]([O-])c1ccccc1C1Nc2cccc3cccc(c23)N1`, the CC50 (HeLa) was > 99 µM (not active), the IC50 (cells) was 27.2 µM (active) and the CC50 [10] was 14.6 µM (active).

With `CC(C)NC(=O)/C(C#N)=C\c1ccc(N(C)C)o1` the EC50 [11] was > 100 µM (active).

— ChEMBL document CHEMBL1201862, “PubChem BioAssay data set” (2004)
